Test results taken from patent publication US9023853B2, “Janus kinase 2 (JAK2) inhibitor for the treatment of lupus” (Cephalon, Inc., priority 2010, dated 2015).
Entries after “also recorded” stand apart in the source; their conditions may differ.

Legend:
Assay type in all cases: in vivo, mouse
IFNα = assay: Serum IFNα at EOS in NZM mice; conditions: EOS
Experimental: (§1) Age mated, female, NZM or NZW/LacJ, mice were matured for the study of lupus nephritis for a total of 7 months or 210 days at which time urine was collected for proteinuria detection. Mice with 0.5-1.0 mg/ml of urine protein as determined by an optical density-based total protein precipitation assay and cross-checked for 30-300 mg/dl of protein as determined by a stick assay were considered proteinuria positive and selected for study entry. Groups were normalized to contain a Gaussian distribution of proteinuria positive animals (i.e., ⅓ low proteinuria, ⅓ medium, ⅓ high) then randomized between groups before ear marking and taking baseline measures including urine and serum collections. A total of five mice from the total population were randomly selected for baseline kidney histology evaluation. Treatments and tests for each group are as described in FIG. 12. Briefly, with a minimum of 10 mice per group, COMPOUND A was administered at 100 mg/kg or 55 mg/kg, both twice a day and orally. […] Vehicle included 3% DMSO, 10% Solutol and 87% PBS. […] End-stage lupus nephritis was evaluated by histopathology and scored by a board certified pathologist for the assessment of total renal damage in diseased animals using the scoring method described by Smith et al (Smith, Dong et al. 2007). […] Day-98 or “end of treatment/study” represents 310 days of age for the NZM animals.

NZM mice [1] = assay: Renal histopathology kidney IC-GN scoring in NZM mice; conditions: for D: Glomerular Sclerosis / E: Interstitial Infiltration / G: Interstitial Fibrosis / B: Glomerular Cellularity / C: Glomerular Necrosis / F: Tubular Atrophy / H: Vasculitis: NZM individual mouse; for Glomerular Cellularity / Glomerular Necrosis / Glomerulosclerosis / Interstitial Fibrosis / Interstitial Infiltration / Tubular Atrophy / Vasculitis: NZM kidney score (grade 0-5), mean; for glomerular cellularity decrease compared to vehicle: p<0.001
Experimental: (§2) For histological analyses, the left kidney and lung (NZM model only) from each animal was removed and fixed in 10% buffered neutral 10% formalin (EMD) for 48 hours on an orbital rocker at 25° C., then washed overnight with running dH2O and stored in 70% ethanol at 4° C. until ready to be processed. Kidney stains used for histological analyses included hematoxylin and eosin (H&E), Periodic Acid Schiff (PAS) and Trichrome stains (Wistar Institute, Philadelphia, Pa.). All 3 stained sections were used by the pathologist for scoring purposes. All histological scoring was performed blinded and by an independent board certified veterinary medical pathologist (Julie Engiles, VMD, DACVP; University of Pennsylvania). Multiple stains were used to determine score values. Images in FIGS. 8, 19 and 20 show worst affected area of section selected blindly by the pathologist.
Kidney IC-GN Scoring Method (Smith, Dong et al. 2007):
1. […]
2. […]
3. […]
4. […]
5. […]
6. […]
7. […]
Also considered effacement of the glomerular tuft by PAS positive, Trichrome negative material necrosis. • Glomerular sclerosis was defined by increased fibroplasia or fibrosis within the glomerular tuft or capsule. […] Pharmacodynamic (PD) Analysis
as §1

NZM mice [2] = assay: Lung histopathology in NZM mice; conditions: COMPOUND A 55 mg/kg and 100 mg/kg, vs dexamethasone and vehicle
Experimental: as §2, with “Multiple stains were used to determine score values. Images in FIGS. 8, 19 and 20 show worst affected area of section selected blindly by the pathologist.” left out
(§3) Age mated, female, NZM or NZW/LacJ, mice were matured for the study of lupus nephritis for a total of 7 months or 210 days at which time urine was collected for proteinuria detection. Mice with 0.5-1.0 mg/ml of urine protein as determined by an optical density-based total protein precipitation assay and cross-checked for 30-300 mg/dl of protein as determined by a stick assay were considered proteinuria positive and selected for study entry. […] End-stage lupus nephritis was evaluated by histopathology and scored by a board certified pathologist for the assessment of total renal damage in diseased animals using the scoring method described by Smith et al (Smith, Dong et al. 2007). […]

plasma cells = assay: Spleen plasma cells by flow cytometry in NZM mice
Experimental: Antibodies used for flow cytometry consisted of anti-mouse CD138-APC (eBioscience, San Diego, Calif.), anti-mouse CD19-FITC (eBioscience, San Diego, Calif.), anti-mouse CD38-PE (eBioscience, San Diego, Calif.) and anti-mouse CD45R/B220-Cyc (eBioscience, San Diego, Calif.), Rat IgG1-APC isotype control (eBioscience, San Diego, Calif.), Rat IgG2a-PE isotype control (eBioscience, San Diego, Calif.). All samples were analyzed using an Accuri C6 Flow Cytometer. Complete media was used for all experiments involving the ex vivo culture of splenocytes for all Elispot experiments. Complete media consisted of RPMI1640 (Cellgro, Manassas, Va.), plus 1% Pen-Strep (Cellgro, Manassas, Va.), 1% L-Gln (Cellgro, Manassas, Va.), 1% NEAA (Cellgro, Manassas, Va.), β-ME (Cellgro, Manassas, Va.), plus 10% FBS (Cellgro, Manassas, Va.).
Washed, RBC-lysed splenocytes were stained for plasma cell markers as previously used in published reports (Neubert, Meister et al. 2008). As used herein the term “plasma cell” will refer to the following immunophenotype definition: Plasma cells were defined as live CD19-negative, CD45R/B220-negative, CD138-positive, CD38-positive events for the MRL/lpr model. A total of 200,000-500,000 events were collected per tube/sample. […]
as §3

[3] = system: ASCs specific for chromatin; assay: Anti-chromatin antibody secreting B-cell Elispot, NZM spleen; conditions: NZM mice
Experimental: as §1

[4] = NZM mice, sentence names 55 mg/kg and 100 mg/kg doses, p<0.05

SMILES: CN1CCN(c2cccc(Nc3nc4c(-c5ccc(S(C)(=O)=O)cc5)cccn4n3)c2)CC1 [COMPOUND A, [8-(4-methanesulfonyl-phenyl)-[1,2,4]triazolo[1,5-a]pyridin-2-yl]-[3-(4-methyl-piperazin-1-yl)-phenyl]-amine]
- serum IFNα decrease compared to vehicle (IFNα; COMPOUND A 55 mg/kg): 70.2%
- serum IFNα decrease compared to vehicle (IFNα; COMPOUND A 100 mg/kg): 73.2%
- D: Glomerular Sclerosis (NZM mice [1]; CMPD A 55 mpk bid): − (‘−’ no disease (1))
- E: Interstitial Infiltration (NZM mice [1]; CMPD A 55 mpk bid): − (‘−’ no disease (1))
- G: Interstitial Fibrosis (NZM mice [1]; CMPD A 55 mpk bid): − (‘−’ no disease (1))
- B: Glomerular Cellularity (NZM mice [1]; CMPD A 55 mpk bid, 55 mg/kg): + (‘+’ mild (2)); also recorded: − (‘−’ no disease (1))
- C: Glomerular Necrosis (NZM mice [1]; CMPD A 55 mpk bid, 55 mg/kg): − (‘−’ no disease (1)); also recorded: + (‘+’ mild (2))
- F: Tubular Atrophy (NZM mice [1]; CMPD A 55 mpk bid, 55 mg/kg): + (‘+’ mild (2)); also recorded: − (‘−’ no disease (1))
- H: Vasculitis (NZM mice [1]; CMPD A 55 mpk bid, 55 mg/kg): − (‘−’ no disease (1)); also recorded: + (‘+’ mild (2))
- B: Glomerular Cellularity (NZM mice [1]; CMPD A 100 mpk bid, 100 mg/kg): − (‘−’ no disease (1)); also recorded: + (‘+’ mild (2))
- C: Glomerular Necrosis (NZM mice [1]; CMPD A 100 mpk bid, 100 mg/kg): − (‘−’ no disease (1)); also recorded: + (‘+’ mild (2)); also recorded: ++ (‘++’ moderate (3))
- D: Glomerular Sclerosis (NZM mice [1]; CMPD A 100 mpk bid, 100 mg/kg): − (‘−’ no disease (1)); also recorded: ++ (‘++’ moderate (3))
- E: Interstitial Infiltration (NZM mice [1]; CMPD A 100 mpk bid, 100 mg/kg): − (‘−’ no disease (1)); also recorded: + (‘+’ mild (2))
- F: Tubular Atrophy (NZM mice [1]; CMPD A 100 mpk bid, 100 mg/kg): − (‘−’ no disease (1)); also recorded: + (‘+’ mild (2))
- G: Interstitial Fibrosis (NZM mice [1]; CMPD A 100 mpk bid, 100 mg/kg): − (‘−’ no disease (1)); also recorded: + (‘+’ mild (2))
- H: Vasculitis (NZM mice [1]; CMPD A 100 mpk bid, 100 mg/kg): − (‘−’ no disease (1)); also recorded: + (‘+’ mild (2))
- Glomerular Cellularity (NZM mice [1]; COMPOUND A 55 mg/kg): 1.33
- Glomerular Necrosis (NZM mice [1]; COMPOUND A 55 mg/kg): 1.22
- Glomerulosclerosis (NZM mice [1]; COMPOUND A 55 mg/kg): 1.00
- Interstitial Fibrosis (NZM mice [1]; COMPOUND A 55 mg/kg): 1.0
- Interstitial Infiltration (NZM mice [1]; COMPOUND A 55 mg/kg): 1.11
- Tubular Atrophy (NZM mice [1]; COMPOUND A 55 mg/kg): 1.22
- Vasculitis (NZM mice [1]; COMPOUND A 55 mg/kg): 1.11
- Glomerular Cellularity (NZM mice [1]; COMPOUND A 100 mg/kg): 1.44
- Glomerular Necrosis (NZM mice [1]; COMPOUND A 100 mg/kg): 1.44
- Glomerulosclerosis (NZM mice [1]; COMPOUND A 100 mg/kg): 1.22
- Interstitial Fibrosis (NZM mice [1]; COMPOUND A 100 mg/kg): 1.22
- Interstitial Infiltration (NZM mice [1]; COMPOUND A 100 mg/kg): 1.22
- Tubular Atrophy (NZM mice [1]; COMPOUND A 100 mg/kg): 1.33
- Vasculitis (NZM mice [1]; COMPOUND A 100 mg/kg): 1.44
- enlarged glomeruli and leukocytic infiltrates in renal sections (NZM mice [1]; NZM mice treated with COMPOUND A, FIG. 19): absent
- glomerular cellularity decrease compared to vehicle (NZM mice [1]; NZM mice, COMPOUND A 55 mg/kg): 59.3%
- glomerular cellularity decrease compared to vehicle (NZM mice [1]; NZM mice, COMPOUND A 100 mg/kg): 56.2%
- renal pathologies (NZM mice [1]; NZM mice, comparable to non-diseased NZW/LacJ age-matched control, FIG. 19): decreased renal pathologies
- interstitial fibrosis decrease compared to vehicle (NZM mice [1]; [4]): 58.3%
- vasculitis decrease compared to vehicle (NZM mice [1]; [4]): 8.3%
- lung infiltrates (NZM mice [2]): prevented lung infiltrates
- spleen plasma cells decrease compared to vehicle (plasma cells; COMPOUND A 55 mg/kg): 57.6%
- spleen plasma cells decrease compared to vehicle (plasma cells; COMPOUND A 100 mg/kg): 52.9%
- ASCs specific for chromatin, decrease ([3]; COMPOUND A 55 mg/kg): 97.4%
- ASCs specific for chromatin, decrease ([3]; COMPOUND A 100 mg/kg): 100%
